Test results published in patent publication US8217058B2, “Substituted piperidino phenyloxazolidinones” (Wockhardt Ltd., priority 2006, dated 2012).
Values after ≈ are worked out from the molar mass of the structure shown.

Tests used:
[1] = tested on: Staphylococcus aureus ATCC 25923; assay: MIC test (agar dilution); format: cell-based; settings: Mueller Hinton agar, 24 h at 35° C.
[2] = tested on: Staphylococcus aureus ATCC 29213; assay: MIC test (agar dilution); format: cell-based; settings: Mueller Hinton agar, 24 h at 35° C.
[3] = tested on: Staphylococcus aureus Smith; assay: MIC test (agar dilution); format: cell-based; settings: Mueller Hinton agar, 24 h at 35° C.
[4] = tested on: Staphylococcus aureus STA-014; assay: MIC test (agar dilution); format: cell-based; settings: Mueller Hinton agar, 24 h at 35° C.
[5] = tested on: Staphylococcus aureus MRSA-032; assay: MIC test (agar dilution); format: cell-based; settings: Mueller Hinton agar, 24 h at 35° C.
Experimental: The in vitro MIC methods of test compounds were determined essentially as described in WO 95/25106, U.S. Pat. No. 5,668,286 and EP 0 750 618 B1.
Overnight grown cultures of MRSA-032 organisms in Tryptic Soya broth were diluted in Mueller Hinton Broth to give optical density matching with MacFarland tube 0.5 standard. Cultures were further diluted 1:10 in Mueller Hinton broth. Using Denley's multipoint inoculator, 10^4 cells were deposited on Mueller Hinton agar (Difco) containing range of 2 fold dilutions of test compounds. […] MIC is defined as minimum drug concentration that inhibits test organisms.

[6] = tested on: Staphylococcus aureus Mu-50 VISA; assay: MIC test (agar dilution); format: cell-based; settings: Mueller Hinton agar, 24 h at 35° C.
[7] = tested on: Staphylococcus epidermidis STE-118; assay: MIC test (agar dilution); format: cell-based; settings: Mueller Hinton agar, 24 h at 35° C.
[8] = tested on: Staphylococcus epidermidis STE-110 MRSE; assay: MIC test (agar dilution); format: cell-based; settings: Mueller Hinton agar, 24 h at 35° C.
[9] = tested on: Enterococcus faecalis ATCC 29212; assay: MIC test (agar dilution); format: cell-based; settings: Mueller Hinton agar, 24 h at 35° C.
[10] = tested on: Enterococcus faecalis Efe-406 VRE; assay: MIC test (agar dilution); format: cell-based; settings: Mueller Hinton agar, 24 h at 35° C.
[11] = tested on: Enterococcus faecium Efa-303; assay: MIC test (agar dilution); format: cell-based; settings: Mueller Hinton agar, 24 h at 35° C.
[12] = tested on: Enterococcus faecium Efa-332 VRE; assay: MIC test (agar dilution); format: cell-based; settings: Mueller Hinton agar, 24 h at 35° C.
[13] = tested on: Streptococcus pneumoniae ATCC 49619; assay: MIC test (agar dilution); format: cell-based; settings: Mueller Hinton agar, 24 h at 35° C.
[14] = tested on: Streptococcus pneumoniae ATCC 6303; assay: MIC test (agar dilution); format: cell-based; settings: Mueller Hinton agar, 24 h at 35° C.
[15] = tested on: Streptococcus pyogenes ATCC 25147; assay: MIC test (agar dilution); format: cell-based; settings: Mueller Hinton agar, 24 h at 35° C.
[16] = tested on: Streptococcus agalactiae ATCC 13813; assay: MIC test (agar dilution); format: cell-based; settings: Mueller Hinton agar, 24 h at 35° C.
[17] = tested on: Streptococcus group F ATCC 12392; assay: MIC test (agar dilution); format: cell-based; settings: Mueller Hinton agar, 24 h at 35° C.
[18] = tested on: Streptococcus group G ATCC 12394; assay: MIC test (agar dilution); format: cell-based; settings: Mueller Hinton agar, 24 h at 35° C.
[19] = tested on: Streptococcus group B ATCC 12386; assay: MIC test (agar dilution); format: cell-based; settings: Mueller Hinton agar, 24 h at 35° C.
[20] = tested on: Streptococcus group C ATCC 12388; assay: MIC test (agar dilution); format: cell-based; settings: Mueller Hinton agar, 24 h at 35° C.
[21] = Oral pharmacokinetic study in dog, serum concentrations by HPLC; format: in vivo; parameters: Serum concentration: unit not given here; settings: for Serum concentration: dog, 15 mg/kg p.o
Experimental: Oral (15 mg/kg p.o) pharmacokinetic studies were done in dog. Blood samples were collected at time points of 0, 0.08 (not for oral), 0.25, 0.50, 1.0, 1.5, 2.0, 3.0, 4.0, 5.0, 6.0, 8.0, 10.0, 12.0 and 24.0 h. To facilitate IV dosing and collection of blood samples, the dogs were implanted with cannula in cephalic vein. Serum obtained from blood samples was used for HPLC-based analysis.
Serum samples were extracted by solid phase extraction technique using Water's OASIS HLB cartridges. An HPLC-Diode array detection system was used for analysis. Prepared samples were chromatographed on a YMC-AM reversed phase column (150×4.6 mm ID; 5 μm) using an isocratic mobile phase acetate buffer (50 mmol ammonium acetate pH 6.6) acetonitrile, 66:34% v/v (for a representative compound of the invention) at a flow rate of 1 ml/min, measured at λmax 254 nm. Independently prepared analytical standards and quality control samples were analyzed with each set of unknown samples.

COCC1(O)CCN(c2c(F)cc(N3C[C@H](CNC(C)=O)OC3=O)cc2F)CC1 [Example-11, (5S)—N-{3-[3,5-difluoro-4-(4-hydroxy-(4-methoxymethyl)-piperidin-1yl)phenyl]-2-oxo-oxazolidin-5-ylmethyl}-acetamide]
MIC [1]: 2 µg/mL (≈ 4.84 µM) | MIC [2]: 2 µg/mL (≈ 4.84 µM) | MIC [3]: 2 µg/mL (≈ 4.84 µM) | MIC [4]: 4 µg/mL (≈ 9.68 µM) | MIC [5]: 4 µg/mL (≈ 9.68 µM) | MIC [6]: 2 µg/mL (≈ 4.84 µM) | MIC [7]: 1 µg/mL (≈ 2.42 µM) | MIC [8]: 1 µg/mL (≈ 2.42 µM) | MIC [9]: 2 µg/mL (≈ 4.84 µM) | MIC [10]: 4 µg/mL (≈ 9.68 µM) | MIC [11]: 4 µg/mL (≈ 9.68 µM) | MIC [12]: 2 µg/mL (≈ 4.84 µM) | MIC [13]: 2 µg/mL (≈ 4.84 µM) | MIC [14]: 2 µg/mL (≈ 4.84 µM) | MIC [15]: 2 µg/mL (≈ 4.84 µM) | MIC [16]: 2 µg/mL (≈ 4.84 µM) | MIC [17]: 2 µg/mL (≈ 4.84 µM) | MIC [18]: 2 µg/mL (≈ 4.84 µM) | MIC [19]: 2 µg/mL (≈ 4.84 µM) | MIC [20]: 2 µg/mL (≈ 4.84 µM) | Serum concentrations relative to the MIC value ([21]; dog pharmacokinetic study, up to 24 h post dosing): significantly higher serum concentrations above the MIC value up to 24 h post dosing | Serum concentration ([21]; time point 0.0 hr): 0.0 | Serum concentration ([21]; time point 0.25 hr): 4.14 | Serum concentration ([21]; time point 0.5 hr): 5.41 | Serum concentration ([21]; time point 1.0 hr): 8.76 | Serum concentration ([21]; time point 2.0 hr): 11.42 | Serum concentration ([21]; time point 3.0 hr): 10.97 | Serum concentration ([21]; time point 4.0 hr): 10.37 | Serum concentration ([21]; time point 5.0 hr): 8.81 | Serum concentration ([21]; time point 6.0 hr): 7.28 ± 2.14 | Serum concentration ([21]; time point 8.0 hr): 5.82 ± 1.58 | Serum concentration ([21]; time point 10.0 hr): 4.50 ± 1.03 | Serum concentration ([21]; time point 12.0 hr): 3.47 ± 1.25 | Serum concentration ([21]; time point 24.0 hr): 2.19 ± 1.91
